pIC50: −log10 of the molar value. A value given as a limit tells only on which side of the number the result lay.

This experiment concerns the target T1, human HPK1 protein (Homo sapiens, UniProt Q92918).
T1 construct: recombinant human HPK1 protein (a.a. 1-346) was expressed in Sf9 insect cells; GST (N); purchased Signalchem M23-11G; host or cells: Sf9 insect cells (baculovirus)
T1 sequence (Q92918 1-346): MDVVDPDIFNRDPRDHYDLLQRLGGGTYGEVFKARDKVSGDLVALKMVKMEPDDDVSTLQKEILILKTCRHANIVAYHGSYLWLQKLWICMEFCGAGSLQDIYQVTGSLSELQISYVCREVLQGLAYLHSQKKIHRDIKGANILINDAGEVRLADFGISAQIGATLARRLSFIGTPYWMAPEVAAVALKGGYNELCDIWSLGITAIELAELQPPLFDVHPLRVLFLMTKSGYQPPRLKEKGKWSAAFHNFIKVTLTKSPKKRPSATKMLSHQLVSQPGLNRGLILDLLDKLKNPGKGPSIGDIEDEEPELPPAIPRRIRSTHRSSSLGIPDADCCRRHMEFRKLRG
Kind of experiment: Human HPK1 protein TR-FRET assay. The experiment is classed as biochemical. The following applies: 1 mM ATP, Table 20. In a few lines: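 Read-out was TR-FRET using Eu-labeled anti-phospho-CREB (Ser133) antibody, with the 665/615 nm signal ratio normalised to DMSO-only wells and fitted by a 4-parameter logistic model for IC50. Reactions held 10 nM Sf9-expressed GST-HPK1 (a.a. 1-346), 100 nM CREBtide and 1 mM ATP, run 60 minutes at room temperature, pH 7.5.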
In general terms: In TR-FRET formats the signal depends on donor and acceptor labels being close together.
`CCC1CN(C(=O)Nc2ccc(CN3CCN(CC)CC3)c(C(F)(F)F)c2)Cc2cc(Oc3cc(NC(=O)OC)ncc3F)cnc21` (stereo not drawn) [XIV-87]: the negative logarithm of the IC50 (pIC50) (usually the IC50 on a negative log10 scale, so that one unit is a factor of ten) was greater than 6.30. `C[C@H]1CN(C(=O)Nc2ccc(CN3CCN(C)CC3)c(C(F)(F)F)c2)Cc2cc(Oc3c(F)cnc4[nH]c(C5(O)COC5)cc34)cnc21` [XIV-88] showed a negative logarithm of the IC50 (pIC50) greater than 6.30. As for `Cc1cc2c(Oc3cnc4c(c3)CN(C(=O)Nc3ccc(CN5CCN(C)CC5)c(OC(F)(F)F)c3)C[C@H]4C)ccnc2[nH]1` [XIV-89], the pIC50 was greater than 6.30. Then `Cc1cc2c(Oc3cnc4c(c3)CN(C(=O)Nc3ccc(CN5CCN(C)CC5)c(C(F)(F)F)c3)C[C@@H]4C)ccnc2[nH]1` [XIV-90], with greater than 6.30; and `Cc1cc2c(Oc3cnc4c(c3)CN(C(=O)Nc3ccc(CN5CCN(C)CC5)c(C(F)(F)F)c3)C[C@H]4C)ccnc2[nH]1` [XIV-91], with greater than 6.30; and `CCC1CN(C(=O)Nc2ccc(CN3CCN(CC)CC3)c(C(F)(F)F)c2)Cc2cc(Oc3cc(NC(=O)c4cnn(C)c4)ncc3F)cnc21` (stereo not drawn) [XIV-92], with greater than 6.30. Then `Cc1cc2c(Oc3cnc4c(c3)CN(C(=O)Nc3ccc(CN5CCN(C)CC5)c(OC(F)F)c3)C[C@H]4C)ccnc2[nH]1` [XIV-93], with greater than 6.30; and `Cc1cc2c(Oc3cnc4c(c3)CN(C(=O)Nc3ccc(CN5CCNC6(CC6)C5)c(C(F)(F)F)c3)C[C@H]4C)ccnc2[nH]1` [XIV-94], with greater than 6.30. Regarding `CCN1CCN(Cc2ccc(NC(=O)N3Cc4cc(Oc5c(F)cnc6[nH]c(CO)cc56)cnc4[C@@H](C)C3)cc2C(F)(F)F)CC1` [XIV-95], the negative logarithm of the IC50 (pIC50) is greater than 6.30. `C[C@H]1CN(C(=O)Nc2ccc(CN3CCN(C)CC3)c(C(F)(F)F)c2)Cc2cc(Oc3ccnc4[nH]c(C5(O)CC5)cc34)cnc21` [XIV-97] gave a pIC50 greater than 6.30. Then `Cc1cc2c(Oc3cnc4c(c3)CN(C(=O)Nc3ccc(CN5C[C@H]6C[C@@H]5CN6C)c(C(F)(F)F)c3)C[C@H]4C)ccnc2[nH]1` [XIV-99], with 5.30 to 6.30; and `Cc1cc2c(Oc3cnc4c(c3)CN(C(=O)Nc3ccc(CN5CC6CCC(C5)N6)c(C(F)(F)F)c3)C[C@H]4C)ccnc2[nH]1` [XIV-101], with 5.30 to 6.30. The value for `CC[C@H]1CN(C(=O)Nc2ccc(CN3CCN(C)CC3)c(C(F)(F)F)c2)Cc2cc(Oc3ccnc4[nH]c(C(=O)N5CCCC5)cc34)cnc21` [XIV-102] was greater than 6.30. Then `CC[C@H]1CN(C(=O)Nc2ccc(CN3CCN(C)CC3)c(C(F)(F)F)c2)Cc2cc(Oc3ccnc4[nH]c(C(=O)N(C)CCO)cc34)cnc21` [XIV-105], with greater than 6.30; and `CC[C@H]1CN(C(=O)Nc2ccc(CN3CCN(C)CC3)c(C(F)(F)F)c2)Cc2cc(Oc3ccnc4[nH]c(C(=O)NCCCO)cc34)cnc21` [XIV-108], with greater than 6.30.

In the case of `CC[C@H]1CN(C(=O)Nc2ccc(CN3CCN(C)CC3)c(C(F)(F)F)c2)Cc2cc(Oc3ccnc4[nH]c(C(=O)N5CC[C@H](O)C5)cc34)cnc21` [XIV-109], the pIC50 is greater than 6.30. In turn, `CC[C@H]1CN(C(=O)Nc2ccc(CN3CCN(C)CC3)c(C(F)(F)F)c2)Cc2cc(Oc3ccnc4[nH]c(C(=O)N(C)CCCO)cc34)cnc21` [XIV-111] gave a pIC50 greater than 6.30. Compound `CC[C@H]1CN(C(=O)Nc2ccc(CN3CCN(C)CC3)c(C(F)(F)F)c2)Cc2cc(Oc3ccnc4[nH]c(-c5nnc(C)o5)cc34)cnc21` [XIV-112] gave a pIC50 greater than 6.30. Then `CC[C@H]1CN(C(=O)Nc2ccc(CN3CCNCC3)c(C(F)(F)F)c2)Cc2cc(Oc3ccnc4[nH]c(-c5nnc(C)o5)cc34)cnc21` [XIV-113], with greater than 6.30; and `CC[C@H]1CN(C(=O)Nc2ccc(CN3CCN(C)CC3)c(C(F)(F)F)c2)Cc2cc(Oc3ccnc4[nH]c(-c5n[nH]c(=O)o5)cc34)cnc21` [XIV-114], with greater than 6.30. Then `CC[C@@H]1CN(C(=O)Nc2ccc(CN3CCN(C)CC3)c(C(F)(F)F)c2)Cc2cc(Oc3ccnn4cc(C(=O)N(C)C)nc34)cnc21` [XIV-115], with 5.00 to 5.30; and `CC[C@@H]1CN(C(=O)Nc2ccc(CN3CCNCC3)c(C(F)(F)F)c2)Cc2cc(Oc3ccnn4cc(C(=O)N(C)C)nc34)cnc21` [XIV-116], with 5.00 to 5.30. The value for `CC[C@H]1CN(C(=O)Nc2ccc(CN3CCN(C)CC3)c(C(F)(F)F)c2)Cc2cc(Oc3ccnn4cc(C(=O)NC)nc34)cnc21` [XIV-120] was 5.30 to 6.30; that for `CC[C@H]1CN(C(=O)Nc2ccc(CN3CCN(C)CC3)c(C(F)(F)F)c2)Cc2cc(Oc3ncnc4[nH]c(C(=O)NC)cc34)cnc21` [XIV-121] was greater than 6.30. In the case of `CC[C@H]1CN(C(=O)Nc2ccc(CN3CCNCC3)c(C(F)(F)F)c2)Cc2cc(Oc3ccnn4cc(C(=O)N(C)C)cc34)cnc21` [XIV-124], the pIC50 was greater than 6.30. Then `CC[C@H]1CN(C(=O)Nc2ccc(CN3CCNCC3)c(C(F)(F)F)c2)Cc2cc(Oc3ccnn4cc(C(=O)NC)cc34)cnc21` [XIV-125], with greater than 6.30. Compound `CC[C@H]1CN(C(=O)Nc2ccc(CN3CCNCC3)c(C(F)(F)F)c2)Cc2cc(Oc3ncnc4[nH]c(C(=O)N(C)C)cc34)cnc21` [XIV-126] gave a negative logarithm of the IC50 (pIC50) greater than 6.30.

Compound `CC[C@H]1CN(C(=O)Nc2ccc(CN3CCNCC3)c(C(F)(F)F)c2)Cc2cc(Oc3ncnc4[nH]c(C(=O)NC)cc34)cnc21` [XIV-127] gave a pIC50 greater than 6.30. Then `CC[C@H]1CN(C(=O)Nc2ccc(CN3CCNCC3)c(C(F)(F)F)c2)Cc2cc(Oc3ccnn4cc(C(=O)NC)nc34)cnc21` [XIV-129], with 5.30 to 6.30; and `CC[C@H]1CN(C(=O)Nc2ccc(CN3CCNCC3)c(C(F)(F)F)c2)Cc2cc(Oc3ccnc4[nH]c(-c5n[nH]c(=O)o5)cc34)cnc21` [XIV-130], with greater than 6.30. On to `CC[C@H]1CN(C(=O)Nc2ccc(CN3CCN(CC)CC3)c(C(F)(F)F)c2)Cc2cc(Oc3ccnc4[nH]c(C(=O)N(C)C)cc34)cnc21` [XIV-131], for which the negative-log IC50 (pIC50) is greater than 6.30.

With `CC[C@H]1CN(C(=O)Nc2ccc(CN3CCN(C)CC3)c(C(F)(F)F)c2)Cc2cc(Oc3ccnc4[nH]c(-c5noc(=O)[nH]5)cc34)cnc21` [XIV-132], the negative logarithm of the IC50 (pIC50) is greater than 6.30.

In the case of `CC[C@H]1CN(C(=O)Nc2ccc(CN3CCN(C)CC3)c(C(F)(F)F)c2)Cc2cc(Oc3ccnc4[nH]c(-c5noc(C)n5)cc34)cnc21` [XIV-133], the pIC50 is greater than 6.30. Then `CC[C@H]1CN(C(=O)Nc2ccc(CN3CCNCC3)c(C(F)(F)F)c2)Cc2cc(Oc3ccnc4[nH]c(-c5noc(=O)[nH]5)cc34)cnc21` [XIV-135], with greater than 6.30; and `CC[C@H]1CN(C(=O)Nc2ccc(CN3CCNCC3)c(C(F)(F)F)c2)Cc2cc(Oc3ccnc4[nH]c(-c5noc(C)n5)cc34)cnc21` [XIV-136], with greater than 6.30; and `CC[C@H]1CN(C(=O)Nc2cc(C(F)(F)F)c(CN3CCN(C)CC3)cc2F)Cc2cc(Oc3ccnc4[nH]c(C(=O)N(C)C)cc34)cnc21` [XIV-137], with greater than 6.30.

`CC[C@H]1CN(C(=O)Nc2ccc(CN3CCN(CCF)CC3)c(C(F)(F)F)c2)Cc2cc(Oc3ccnc4[nH]c(C(=O)N(C)C)cc34)cnc21` [XIV-138] had a pIC50 greater than 6.30. `CC[C@H]1CN(C(=O)Nc2ccc(CN3CCN(CC(F)F)CC3)c(C(F)(F)F)c2)Cc2cc(Oc3ccnc4[nH]c(C(=O)N(C)C)cc34)cnc21` [XIV-139] had a negative logarithm of the IC50 (pIC50) of 5.30 to 6.30. Then `CC[C@H]1CN(C(=O)Nc2ccc(CN3CCN(CC(F)(F)F)CC3)c(C(F)(F)F)c2)Cc2cc(Oc3ccnc4[nH]c(C(=O)N(C)C)cc34)cnc21` [XIV-140], with less than 5.00.
